Results reported in US8344008B2 (Janssen Pharmaceutica NV, priority 2007, dated 2013).

The compounds below were run against T1, recombinant human LTA4 hydrolase (rhLTA4H) (Homo sapiens, UniProt P09960) (assay: Recombinant Human LTA4 Hydrolase Assay for LTA4 Hydrolase Inhibitor Activity). Conditions: average of results obtained; LTB4 quantified by enzyme-linked immunoassay.
T1 construct: made in house; host or cells: Spodoptera frugiperda (Sf-9) cells, baculovirus (pFastBac1)
T1 sequence (P09960 1-611): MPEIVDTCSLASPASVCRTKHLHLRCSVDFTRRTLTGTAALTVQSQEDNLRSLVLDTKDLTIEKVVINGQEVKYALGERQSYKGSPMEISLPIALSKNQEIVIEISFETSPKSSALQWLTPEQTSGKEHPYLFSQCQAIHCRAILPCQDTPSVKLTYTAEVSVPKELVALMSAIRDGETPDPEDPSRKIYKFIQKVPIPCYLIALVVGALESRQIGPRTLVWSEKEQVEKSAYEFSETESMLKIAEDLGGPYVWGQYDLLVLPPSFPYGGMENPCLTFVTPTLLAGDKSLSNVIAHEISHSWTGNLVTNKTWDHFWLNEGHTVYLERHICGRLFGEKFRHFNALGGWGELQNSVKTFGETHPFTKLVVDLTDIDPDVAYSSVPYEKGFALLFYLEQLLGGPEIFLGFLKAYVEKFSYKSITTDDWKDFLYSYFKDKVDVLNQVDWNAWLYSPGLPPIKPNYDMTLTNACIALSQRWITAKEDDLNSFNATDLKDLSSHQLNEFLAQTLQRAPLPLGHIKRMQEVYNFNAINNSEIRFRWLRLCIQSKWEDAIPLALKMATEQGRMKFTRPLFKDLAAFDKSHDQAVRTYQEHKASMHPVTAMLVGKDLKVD
Format: biochemical
Method in brief: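 LTB4 formation, quantified by EIA after 10 min at rt, was the read-out once 9 ng LTA4 (free acid) was added to recombinant human enzyme (36 ng, Sf-9 expressed) that had sat 10 min with compound. Buffer: 0.1 M potassium phosphate pH 7.4 with fatty-acid-free BSA; IC50 by 4-parameter fit.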

Ki [nM] | Structure (SMILES)
3 | CC(=O)N1CC2CN(Cc3ccc(Oc4nc5ccccc5s4)cc3)CC2C1 (stereo not drawn) [Example 88, 1-{5-[4-(Benzothiazol-2-yloxy)-benzyl]-hexahydro-pyrrolo[3,4-c]pyrrol-2-yl}-ethanone]
6 | CC(=O)N1CCC2CN(Cc3ccc(Oc4nc5ccccc5s4)cc3)CC2C1 (stereo not drawn) [Example 89, 1-{2-[4-(Benzothiazol-2-yloxy)-benzyl]-octahydro-pyrrolo[3,4-c]pyridin-5-yl}-ethanone]
21 | CC(=O)N1CC2CCN(Cc3ccc(Oc4nc5ccccc5s4)cc3)CC2C1 (stereo not drawn) [Example 90, 1-{5-[4-(Benzothiazol-2-yloxy)-benzyl]-octahydro-pyrrolo[3,4-c]pyridin-2-yl}-ethanone]
34 | CC(=O)NC1[C@H]2CN(Cc3ccc(Oc4nc5ccccc5s4)cc3)C[C@@H]12 (stereo partly drawn) [Example 93, (R,S)—N-{3-[4-(Benzothiazol-2-yloxy)-benzyl]-3-aza-bicyclo[3.1.0]hex-6-yl}-acetamide]
12 | CC(=O)N1CC2CN(CCOc3ccc(Oc4nc5ccccc5s4)cc3)CC2C1 (stereo not drawn) [Example 94, 1-(5-{2-[4-(Benzothiazol-2-yloxy)-phenoxy]-ethyl}-hexahydro-pyrrolo[3,4-c]pyrrol-2-yl)-ethanone]
36 | NCC(=O)N1CCC2CN(Cc3ccc(Oc4nc5ccccc5s4)cc3)CC21 (stereo not drawn) [Example 95, 2-Amino-1-{5-[4-(benzothiazol-2-yloxy)-benzyl]-hexahydro-pyrrolo[3,4-b]pyrrol-1-yl}-ethanone]
26 | NCC(=O)N1CC2CCN(Cc3ccc(Oc4nc5ccccc5s4)cc3)C2C1 (stereo not drawn) [Example 96, 2-Amino-1-{1-[4-(benzothiazol-2-yloxy)-benzyl]-hexahydro-pyrrolo[3,4-b]pyrrol-5-yl}-ethanone]
33 | NCC(=O)N1CC2CN(Cc3ccc(Oc4nc5ccccc5s4)cc3)CC2C1 (stereo not drawn) [Example 97, 2-Amino-1-{5-[4-(benzothiazol-2-yloxy)-benzyl]-hexahydro-pyrrolo[3,4-c]pyrrol-2-yl}-ethanone]
40 | O=C(CNC(=O)C(F)(F)F)N1CCC2CN(Cc3ccc(Oc4nc5ccccc5s4)cc3)CC21 (stereo not drawn) [Example 98, N-(2-{5-[4-(Benzothiazol-2-yloxy)-benzyl]-hexahydro-pyrrolo[3,4-b]pyrrol-1-yl}-2-oxo-ethyl)-2,2,2-trifluoro-acetamide]
221 | O=C(C1CNC1)N1CC2CN(Cc3ccc(Oc4nc5ccccc5s4)cc3)CC2C1 (stereo not drawn) [Example 99, Azetidin-3-yl-{5-[4-(benzothiazol-2-yloxy)-benzyl]-hexahydro-pyrrolo[3,4-c]pyrrol-2-yl}-methanone]
168 | O=C([C@H]1CCCO1)N1CC2CN(Cc3ccc(Oc4nc5ccccc5s4)cc3)CC2C1 (stereo partly drawn) [Example 100, (R)-{5-[4-(Benzothiazol-2-yloxy)-benzyl]-hexahydro-pyrrolo[3,4-c]pyrrol-2-yl}-(tetrahydro-furan-2-yl)-methanone]
108 | O=C([C@@H]1CCCO1)N1CC2CN(Cc3ccc(Oc4nc5ccccc5s4)cc3)CC2C1 (stereo partly drawn) [Example 101, (S)-{5-[4-(Benzothiazol-2-yloxy)-benzyl]-hexahydro-pyrrolo[3,4-c]pyrrol-2-yl}-(tetrahydro-furan-2-yl)-methanone]
46 | O=C(C1CCOC1)N1CC2CN(Cc3ccc(Oc4nc5ccccc5s4)cc3)CC2C1 (stereo not drawn) [Example 102, {5-[4-(Benzothiazol-2-yloxy)-benzyl]-hexahydro-pyrrolo[3,4-c]pyrrol-2-yl}-(tetrahydro-furan-3-yl)-methanone]
51 | O=C(C1CCOCC1)N1CC2CN(Cc3ccc(Oc4nc5ccccc5s4)cc3)CC2C1 (stereo not drawn) [Example 103, {5-[4-(Benzothiazol-2-yloxy)-benzyl]-hexahydro-pyrrolo[3,4-c]pyrrol-2-yl}-(tetrahydro-pyran-4-yl)-methanone]
62 | O=C(C1CCC1)N1CC2CN(Cc3ccc(Oc4nc5ccccc5s4)cc3)CC2C1 (stereo not drawn) [Example 104, {5-[4-(Benzothiazol-2-yloxy)-benzyl]-hexahydro-pyrrolo[3,4-c]pyrrol-2-yl}-cyclobutyl-methanone]
69 | O=C(c1cnccn1)N1CC2CN(Cc3ccc(Oc4nc5ccccc5s4)cc3)CC2C1 (stereo not drawn) [Example 105, {5-[4-(Benzothiazol-2-yloxy)-benzyl]-hexahydro-pyrrolo[3,4-c]pyrrol-2-yl}-pyrazin-2-yl-methanone]

Ki [nM] | Structure (SMILES)
3 | O=C(c1ccco1)N1CC2CN(Cc3ccc(Oc4nc5ccccc5s4)cc3)CC2C1 (stereo not drawn) [Example 106, {5-[4-(Benzothiazol-2-yloxy)-benzyl]-hexahydro-pyrrolo[3,4-c]pyrrol-2-yl}-furan-2-yl-methanone]
20 | O=C(c1cccs1)N1CC2CN(Cc3ccc(Oc4nc5ccccc5s4)cc3)CC2C1 (stereo not drawn) [Example 107, {5-[4-(Benzothiazol-2-yloxy)-benzyl]-hexahydro-pyrrolo[3,4-c]pyrrol-2-yl}-thiophen-2-yl-methanone]
97 | Cn1ccc(C(=O)N2CC3CN(Cc4ccc(Oc5nc6ccccc6s5)cc4)CC3C2)c1 (stereo not drawn) [Example 108, {5-[4-(Benzothiazol-2-yloxy)-benzyl]-hexahydro-pyrrolo[3,4-c]pyrrol-2-yl}-(1-methyl-1H-pyrrol-3-yl)-methanone]
135 | O=C(c1ccsc1)N1CC2CN(Cc3ccc(Oc4nc5ccccc5s4)cc3)CC2C1 (stereo not drawn) [Example 109, {5-[4-(Benzothiazol-2-yloxy)-benzyl]-hexahydro-pyrrolo[3,4-c]pyrrol-2-yl}-thiophen-3-yl-methanone]
88 | O=C(c1ccoc1)N1CC2CN(Cc3ccc(Oc4nc5ccccc5s4)cc3)CC2C1 (stereo not drawn) [Example 110, {5-[4-(Benzothiazol-2-yloxy)-benzyl]-hexahydro-pyrrolo[3,4-c]pyrrol-2-yl}-furan-3-yl-methanone]
10 | O=C(C1CC1)N1CC2CN(Cc3ccc(Oc4nc5ccccc5s4)cc3)CC2C1 (stereo not drawn) [Example 111, {5-[4-(Benzothiazol-2-yloxy)-benzyl]-hexahydro-pyrrolo[3,4-c]pyrrol-2-yl}-cyclopropyl-methanone]
100 | O=C(CC(F)(F)F)N1CC2CN(Cc3ccc(Oc4nc5ccccc5s4)cc3)CC2C1 (stereo not drawn) [Example 113, 1-{5-[4-(Benzothiazol-2-yloxy)-benzyl]-hexahydro-pyrrolo[3,4-c]pyrrol-2-yl}-3,3,3-trifluoro-propan-1-one]
33 | O=C(c1ccno1)N1CC2CN(Cc3ccc(Oc4nc5ccccc5s4)cc3)CC2C1 (stereo not drawn) [Example 114, {5-[4-(Benzothiazol-2-yloxy)-benzyl]-hexahydro-pyrrolo[3,4-c]pyrrol-2-yl}-isoxazol-5-yl-methanone]
10 | O=C(N1CCOCC1)N1CC2CN(Cc3ccc(Oc4nc5ccccc5s4)cc3)CC2C1 (stereo not drawn) [Example 115, {5-[4-(Benzothiazol-2-yloxy)-benzyl]-hexahydro-pyrrolo[3,4-c]pyrrol-2-yl}-morpholin-4-yl-methanone]
13 | O=C(CO)N1CCC2CN(Cc3ccc(Oc4nc5ccccc5s4)cc3)CC2C1 (stereo not drawn) [Example 116, 1-{2-[4-(Benzothiazol-2-yloxy)-benzyl]-octahydro-pyrrolo[3,4-c]pyridin-5-yl}-2-hydroxy-ethanone]
20 | O=C(CO)N1CC2CCN(Cc3ccc(Oc4nc5ccccc5s4)cc3)CC2C1 (stereo not drawn) [Example 117, 1-{5-[4-(Benzothiazol-2-yloxy)-benzyl]-octahydro-pyrrolo[3,4-c]pyridin-2-yl}-2-hydroxy-ethanone]
23 | O=C(CO)N1CC2CN(Cc3ccc(Oc4nc5ccccc5s4)cc3)CC2C1 (stereo not drawn) [Example 118, 1-{5-[4-(Benzothiazol-2-yloxy)-benzyl]-hexahydro-pyrrolo[3,4-c]pyrrol-2-yl}-2-hydroxy-ethanone]
72 | NS(=O)(=O)N1CC2CN(Cc3ccc(Oc4nc5ccccc5s4)cc3)CC2C1 (stereo not drawn) [Example 119, 5-[4-(Benzothiazol-2-yloxy)-benzyl]-hexahydro-pyrrolo[3,4-c]pyrrole-2-sulfonic acid amide]
205 | O=S(=O)(c1cccnc1)N1CC2CN(Cc3ccc(Oc4nc5ccccc5s4)cc3)CC2C1 (stereo not drawn) [Example 120, 2-{4-[5-(Pyridine-3-sulfonyl)-hexahydro-pyrrolo[3,4-c]pyrrol-2-ylmethyl]-phenoxy}-benzothiazole]
631 | O=S(=O)(c1ccco1)N1CC2CN(Cc3ccc(Oc4nc5ccccc5s4)cc3)CC2C1 (stereo not drawn) [Example 121, 2-{4-[5-(Furan-2-sulfonyl)-hexahydro-pyrrolo[3,4-c]pyrrol-2-ylmethyl]-phenoxy}-benzothiazole]
139 | Cn1cnc(S(=O)(=O)N2CC3CN(Cc4ccc(Oc5nc6ccccc6s5)cc4)CC3C2)c1 (stereo not drawn) [Example 122, 2-{4-[5-(1-Methyl-1H-imidazole-4-sulfonyl)-hexahydro-pyrrolo[3,4-c]pyrrol-2-ylmethyl]-phenoxy}-benzothiazole]

Structure (SMILES) | Ki [nM]
O=C(CF)N1CC2CN(Cc3ccc(Oc4nc5ccccc5s4)cc3)CC2C1 (stereo not drawn) [Example 112, 1-{5-[4-(Benzothiazol-2-yloxy)-benzyl]-hexahydro-pyrrolo[3,4-c]pyrrol-2-yl}-2-fluoro-ethanone] | 2
